Consider 20 compounds from PubChem BioAssay AID256 (DTP/NCI, 2004).

Several values for one entry are separate records, joined by “and”; a condition that tells them apart may be missing. Identical values can stand only once. Toxic doses and inconclusive results are not listed.

The assay relates to CD2F1 mice, L1210 leukemia ip, survival T/C. Description: NCI In Vivo Anticancer Drug Screen. Data for tumor model L1210 Leukemia (intraperitoneal) in CD2F1 (CDF1) mice. The conditions noted are these: higher = longer survival. The gist of the method:
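Activity against a transplanted murine tumor was judged by comparing the compound group with a vehicle group. The outcome in the treated animals was divided by that in the controls.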

The mark [1] stands for this setting: endpoint: mean survival time, dose: 100.0 mg/kg/injection, schedule: Q04DX002 (ip), vehicle: saline with Tween-80.
The mark [2] stands for this setting: endpoint: mean survival time, dose: 200.0 mg/kg/injection, schedule: Q04DX002 (ip), vehicle: saline with Tween-80.
Where [3] appears, read: endpoint: mean survival time, dose: 400.0 mg/kg/injection, schedule: Q04DX002 (ip), vehicle: saline with Tween-80.
The mark [4] stands for this setting: endpoint: mean survival time, dose: 50.0 mg/kg/injection, schedule: Q01DX009 (ip), vehicle: saline with Tween-80.
[5] abbreviates: endpoint: mean survival time, dose: 100.0 mg/kg/injection, schedule: Q01DX009 (ip), vehicle: saline with Tween-80.
Setting [6] is: endpoint: mean survival time, dose: 100.0 mg/kg/injection, schedule: Q04DX003 (ip), vehicle: saline with Tween-80.
Setting [7] is: endpoint: mean survival time, dose: 200.0 mg/kg/injection, schedule: Q04DX003 (ip), vehicle: saline with Tween-80.
Setting [8] is: endpoint: mean survival time, dose: 200.0 mg/kg/injection, schedule: Q01DX009 (ip), vehicle: saline with Tween-80.
The mark [9] stands for this setting: endpoint: mean survival time, dose: 100.0 mg/kg/injection, schedule: Q01DX001 (ip), vehicle: saline with Tween-80.
Where [10] appears, read: endpoint: mean survival time, dose: 25.0 mg/kg/injection, schedule: Q01DX009 (ip), vehicle: saline.
Where [11] appears, read: endpoint: mean survival time, dose: 50.0 mg/kg/injection, schedule: Q01DX009 (ip), vehicle: saline.
Where [12] appears, read: endpoint: mean survival time, dose: 100.0 mg/kg/injection, schedule: Q01DX009 (ip), vehicle: saline.
[13] abbreviates: endpoint: mean survival time, dose: 200.0 mg/kg/injection, schedule: Q01DX001 (ip), vehicle: saline with Tween-80.
The mark [14] stands for this setting: endpoint: mean survival time, dose: 400.0 mg/kg/injection, schedule: Q01DX001 (ip), vehicle: saline with Tween-80.

In the case of `[Br][OsH].[C-]#[O+].c1ccc([PH+](c2ccccc2)c2ccccc2)cc1.c1ccc([PH+](c2ccccc2)c2ccccc2)cc1.c1ccc([PH+](c2ccccc2)c2ccccc2)cc1`, the T/C is, setting by setting: under setting [1], 91 % of control; under setting [2], 87 % of control; under setting [3], 87 % of control.

Turning to `O=c1oc2c(ccc3ccccc32)c(O)c1-c1ccccc1`, the T/C is 103 % of control under setting [4] and 103 % of control under setting [5].

On to `CC(=O)C(C(=O)Nc1ccccc1)c1cc(NS(=O)(=O)c2ccccc2)ccc1O` (stereo unspecified), for which the T/C reads like this: under setting [6], 102 % of control; under setting [7], 96 % of control; (endpoint: mean survival time, dose: 400.0 mg/kg/injection, schedule: Q04DX003 (ip), vehicle: saline with Tween-80) 91 % of control.

Consider `CC(=O)Nc1ccc(OCCOC(=O)Nc2ccc(Cl)cc2C)cc1`, for which the T/C by setting is: (endpoint: mean survival time, dose: 12.5 mg/kg/injection, schedule: Q01DX009 (ip), vehicle: saline with Tween-80) 98 % of control; (endpoint: mean survival time, dose: 25.0 mg/kg/injection, schedule: Q01DX009 (ip), vehicle: saline with Tween-80) 95 % of control; under setting [4], 95 % of control and 96 % of control; under setting [8], 92 % of control.

With `NC(CCl)=NCc1ccccn1`, the T/C reads like this: (endpoint: mean survival time, dose: 25.0 mg/kg/injection, schedule: Q04DX002 (ip), vehicle: saline) 108 % of control; (endpoint: mean survival time, dose: 50.0 mg/kg/injection, schedule: Q04DX002 (ip), vehicle: saline) 97 % of control; (endpoint: mean survival time, dose: 100.0 mg/kg/injection, schedule: Q04DX002 (ip), vehicle: saline) 101 % of control.

As to `COc1cc2c3c(cccc3c1)C(=O)N(CCN(C)C)C2=O`, the T/C (endpoint: mean survival time, dose: 5.0 mg/kg/injection, schedule: Q01DX009 (ip), vehicle: saline with Tween-80) is 98 % of control and 100 % of control; the T/C (endpoint: mean survival time, dose: 10.0 mg/kg/injection, schedule: Q01DX009 (ip), vehicle: saline with Tween-80) was 98 % of control and 102 % of control; the T/C (endpoint: mean survival time, dose: 20.0 mg/kg/injection, schedule: Q01DX009 (ip), vehicle: saline with Tween-80) was 97 % of control and 101 % of control; the T/C (endpoint: mean survival time, dose: 40.0 mg/kg/injection, schedule: Q01DX009 (ip), vehicle: saline with Tween-80) was 100 % of control and 108 % of control; the T/C (endpoint: mean survival time, dose: 80.0 mg/kg/injection, schedule: Q01DX009 (ip), vehicle: saline with Tween-80) was 103 % of control and 110 % of control; the T/C (endpoint: mean survival time, dose: 160.0 mg/kg/injection, schedule: Q01DX009 (ip), vehicle: saline with Tween-80) was 106 % of control.

Regarding `O=C(O)CC1(CC(=O)O)CCCCC1`, the T/C under setting [4] was 98 % of control; the T/C under setting [5] is 94 % of control; the T/C under setting [6] is 91 % of control; the T/C under setting [8] was 100 % of control; the T/C under setting [7] is 93 % of control.

With `Cc1ccc(Nc2c3ccccc3nc3ccccc23)cc1`, the T/C is, setting by setting: (endpoint: mean survival time, dose: 37.5 mg/kg/injection, schedule: Q04DX003 (ip), vehicle: saline with Tween-80) 101 % of control; (endpoint: mean survival time, dose: 40.0 mg/kg/injection, schedule: Q04DX003 (ip), vehicle: other) 120 % of control; (endpoint: mean survival time, dose: 75.0 mg/kg/injection, schedule: Q04DX003 (ip), vehicle: saline with Tween-80) 102 % of control; (endpoint: mean survival time, dose: 150.0 mg/kg/injection, schedule: Q04DX003 (ip), vehicle: other) 160 % of control.

For the compound `CC(=O)O/C=C1\CC2C3CC=C4CC(OC(C)=O)CCC4(C)C3CCC2(C)C1=O` (stereo unspecified), the T/C reads like this: (endpoint: mean survival time, dose: 25.0 mg/kg/injection, schedule: Q01DX001 (ip), vehicle: saline with Tween-80) 100 % of control; (endpoint: mean survival time, dose: 50.0 mg/kg/injection, schedule: Q01DX001 (ip), vehicle: saline with Tween-80) 95 % of control; under setting [9], 95 % of control.

In the case of `[Cl][Pt]([Cl])([Cl])[Cl]`, the T/C runs as follows: (endpoint: mean survival time, dose: 3.13 mg/kg/injection, schedule: Q01DX009 (ip), vehicle: saline) 100 % of control; (endpoint: mean survival time, dose: 3.13 mg/kg/injection, schedule: Q01DX009 (ip), vehicle: suspension in saline) 101 % of control; (endpoint: mean survival time, dose: 6.25 mg/kg/injection, schedule: Q01DX009 (ip), vehicle: saline) 113 % of control; (endpoint: mean survival time, dose: 6.25 mg/kg/injection, schedule: Q01DX009 (ip), vehicle: suspension in saline) 107 % of control; (endpoint: mean survival time, dose: 12.5 mg/kg/injection, schedule: Q01DX009 (ip), vehicle: saline) 121 % of control; (endpoint: mean survival time, dose: 12.5 mg/kg/injection, schedule: Q01DX009 (ip), vehicle: suspension in saline) 121 % of control. The T/C reads like this: under setting [10], 113 % of control and 102 % of control; (endpoint: mean survival time, dose: 25.0 mg/kg/injection, schedule: Q01DX009 (ip), vehicle: suspension in saline) 124 % of control; (endpoint: mean survival time, dose: 25.0 mg/kg/injection, schedule: Q04DX003 (ip), vehicle: saline) 108 % of control and 107 % of control; (endpoint: mean survival time, dose: 50.0 mg/kg/injection, schedule: Q04DX003 (ip), vehicle: saline) 97 % of control and 105 % of control.

Turning to `CC(=O)/C=C/C=C\c1ccccc1`, the T/C is, setting by setting: under setting [5], 104 % of control; under setting [8], 94 % of control; (endpoint: mean survival time, dose: 400.0 mg/kg/injection, schedule: Q01DX009 (ip), vehicle: saline with Tween-80) 98 % of control.

For `CC(C)CCNc1ncnc2c1cnn2C`, the T/C is, setting by setting: under setting [10], 97 % of control; under setting [11], 108 % of control; under setting [12], 86 % of control; (endpoint: mean survival time, dose: 100.0 mg/kg/injection, schedule: Q04DX003 (ip), vehicle: saline) 116 % of control.

On to `CCOP(=O)(N1CC1(C)C)N1CC1(C)C` (stereo unspecified), for which the T/C runs as follows: (endpoint: mean survival time, dose: 5.0 mg/kg/injection, schedule: Q01DX009 (ip), vehicle: saline) 104 % of control; (endpoint: mean survival time, dose: 10.0 mg/kg/injection, schedule: Q01DX009 (ip), vehicle: saline) 114 % of control; (endpoint: mean survival time, dose: 30.0 mg/kg/injection, schedule: Q01DX009 (ip), vehicle: saline) 162 % of control; under setting [11], 225 % of control; (endpoint: mean survival time, dose: 80.0 mg/kg/injection, schedule: Q01DX009 (ip), vehicle: saline) 307 % of control; (endpoint: mean survival time, dose: 120.0 mg/kg/injection, schedule: Q01DX009 (ip), vehicle: saline) 102 % of control.

As for `O=C1c2ccccc2C(=O)N1OCCCN1C(=O)c2ccccc2S1(=O)=O`, the T/C (endpoint: mean survival time, dose: 100.0 mg/kg/injection, schedule: Q01DX001 (ip), vehicle: saline) was 96 % of control; the T/C (endpoint: mean survival time, dose: 200.0 mg/kg/injection, schedule: Q01DX001 (ip), vehicle: saline) was 100 % of control; the T/C (endpoint: mean survival time, dose: 400.0 mg/kg/injection, schedule: Q01DX001 (ip), vehicle: saline) is 100 % of control.

On to `O=S1(=O)OC2(CCCCC2)c2ccccc21`, for which the T/C is, setting by setting: under setting [9], 95 % of control; under setting [1], 96 % of control; under setting [13], 95 % of control; under setting [2], 90 % of control; under setting [14], 100 % of control; under setting [3], 93 % of control.

Consider `CCC1(OC(=O)CNC)C(=O)OCc2c1cc1n(c2=O)Cc2cc3ccccc3nc2-1` (stereo unspecified), for which the T/C by setting is: (endpoint: median survival time, dose: 7.5 mg/kg/injection, schedule: Q04DX002 (ip), vehicle: saline) 124 % of control; (endpoint: median survival time, dose: 15.0 mg/kg/injection, schedule: Q04DX002 (ip), vehicle: saline) 160 % of control and 162 % of control; (endpoint: median survival time, dose: 30.0 mg/kg/injection, schedule: Q04DX002 (ip), vehicle: saline) 239 % of control; (endpoint: median survival time, dose: 60.0 mg/kg/injection, schedule: Q04DX002 (ip), vehicle: saline) 108 % of control.

`CCCCCCCCCCCCNC=O`: the T/C runs as follows: under setting [10], 100 % of control; under setting [11], 103 % of control; under setting [12], 106 % of control.

For the compound `CCCC1=C(CCC)C(F)(F)C1(F)F`, the T/C was 98 % of control (endpoint: mean survival time, dose: 75.0 mg/kg/injection, schedule: Q01DX001 (ip), vehicle: other); 96 % of control (endpoint: mean survival time, dose: 150.0 mg/kg/injection, schedule: Q01DX001 (ip), vehicle: other); 108 % of control (endpoint: mean survival time, dose: 300.0 mg/kg/injection, schedule: Q01DX001 (ip), vehicle: other).

Consider `COC(=O)/N=C(/NC(=O)OC)SC`, for which the T/C is 101 % of control under setting [9], 103 % of control under setting [13] and 98 % of control under setting [14].

Consider `N#CSCc1cc(Cl)c(CSC#N)cc1Cl`, for which the T/C is 102 % of control (endpoint: mean survival time, dose: 75.0 mg/kg/injection, schedule: Q04DX003 (ip), vehicle: saline); 98 % of control (endpoint: mean survival time, dose: 150.0 mg/kg/injection, schedule: Q04DX003 (ip), vehicle: saline); 102 % of control (endpoint: mean survival time, dose: 300.0 mg/kg/injection, schedule: Q04DX003 (ip), vehicle: saline).
